From EP0237495A2, “Halogenides of the ester of 2,N,N,N-dimethyl-alkyl-amino-ethanol with substituted acetic acid and pharmaceutical compositions having antiinflammatory and antiseptic activities containing same” (Sigma-Tau Industrie Farmaceutiche Riunite S.p.A., priority 1986, dated 1987)

Assays:
[1] = test system: Streptococcus faecalis; format: cell-based; details: Enterococcus faecalis, ATCC8043; Streptococcus faecalis ATCC 8043
[2] = test system: Proteus vulgaris; format: cell-based; details: ATCC6897; Proteus vulgaris ATCC 6897
[3] = test system: Escherichia coli; format: cell-based; details: Escherichia coli K 12
[4] = test system: Sarcina lutea; format: cell-based; details: Micrococcus luteus, ATCC9341; Sarcina lutea ATCC 9341
[5] = test system: Bordetella bronchiseptica; format: cell-based; details: ATCC4617; Bordetella bronchiseptica ATCC 4617
[6] = test system: mouse; assay: in vivo; details: ip
Experimental: (§1) The test was carried out in the mouse. The products were administered by intraperitoneal injection. The death rate was assessed daily over a period of 14 days following treatment.

[7] = in vivo; details: mouse, ip
Experimental: as §1

[8] = test system: Cryptococcus neoformans; format: cell-based; details: Cryptococcus neoformans ISM 7182
[9] = test system: Aspergillus niger; format: cell-based; details: ATCC9642; Aspergillus niger ATCC 9642
[10] = test system: Staphylococcus epidermidis; format: cell-based; details: Staphylococcus epidermidis BB 0223
[11] = test system: Bacillus antracis; format: cell-based
[12] = test system: rat peritoneum; details: in vivo, ip
[13] = test system: Saccharomyces cerevisiae; format: cell-based; details: Saccharomyces cerevisiae BB 0193
[14] = test system: Candida utilis; format: cell-based; details: Williopsis jadinii; Candida utilis BB 0173
[15] = test system: Klebsiella pneumoniae; format: cell-based; details: ATCC10031; Klebsiella pneumoniae ATCC 10031
[16] = test system: Candida albicans; format: cell-based; details: ATCC10231; Candida albicans ATCC 10231
[17] = test system: Streptococcus pyogenes; format: cell-based; details: ATCC12380; Streptococcus pyogenes ATCC 12380
[18] = test system: Penicillium funicolosum; format: cell-based; details: ATCC9644; Penicillium funicolosum ATCC 9644
[19] = test system: Rhodotorula rubra; format: cell-based; details: Rhodotorula rubra ISM 7198
[20] = test system: Pseudomonas aeruginosa; format: cell-based; details: ATCC14502; Pseudomonas aeruginosa ATCC 14502
[21] = test system: Staphylococcus aureus; format: cell-based; details: ATCC6538P; Staphylococcus aureus ATCC 6538P
[22] = test system: Pseudomonas maltophilia; format: cell-based; details: Stenotrophomonas maltophilia, ATCC13637; Pseudomonas maltophilia ATCC 13637
[23] = test system: rat subcutaneous tissue; assay: Topical tolerability in rat subcutaneous tissue; format: in vivo; design: key: 0: no response; 1: moderate response; 2: sharp response; 3: marked response; 4: extreme response; details: 1 ml of 1% suspension s.c., arbitrary scale 0-4; for Irritation degree 4h: 4 hours after administration; for Irritation degree 24h: 24 hours after administration
Experimental: The test was carried out on rats using two different test procedures. The products were tested at 1% concentration. According to the first procedure, 1 ml of the test suspensions were injected subcutaneously (s.c.) in the side of animals. 4 or 24 hours following administration, the animals were sacrificed, and the degree of subcutaneous irriration estimated.
The presence of erythema, oedema and necrosis was assessed based on the following arbitrary rating scale • - 0 : no response • - 1 : moderate response • - 2 : sharp response • - 3 : marked response • - 4 : extreme response

[24] = test system: acetic acid-induced peritoneal exudation; assay: Antiexudative activity (acetic acid-induced peritoneal exudation); format: in vivo; details: rat, 1 hour before i.p. 1% acetic acid
Experimental: The test was carried out in the rat. The products were orally administered 1 hour before the intraperitoneal injection of 0.5 ml of 1% acetic acid. Along with the irritant agent, 1 ml of 0,1% Blue Evans was injected i.v. to the rats. The same procedure as that described above was followed for collecting the peritoneal exudate and rating the irritation degree.

[25] = test system: Bacillus subtilis; format: cell-based; details: ATCC6633; Bacillus subtilis ATCC 6633

Row | SMILES | MIC [1] [µg/mL] | MIC [2] [µg/mL] | MIC [3] [µg/mL] | MIC [4] [µg/mL] | MIC [5] [µg/mL] | MIC [8] [µg/mL] | MIC [9] [µg/mL] | MIC [10] [µg/mL] | MIC [11] [µg/mL] | MIC [13] [µg/mL] | MIC [14] [µg/mL] | MIC [15] [µg/mL] | MIC [16] [µg/mL] | MIC [17] [µg/mL] | MIC [18] [µg/mL] | MIC [19] [µg/mL] | MIC [20] [µg/mL] | MIC [21] [µg/mL] | MIC [22] [µg/mL] | % Inhibition with respect to controls ([24]; 200 mg/kg orally) [%] | also measured
1 | CCCCCCCC[N+](C)(C)CCOC(=O)C(C)c1ccc(CC(C)C)cc1 (stereo not drawn) [AF 150, bromide of the ester of 2-N,N,N-dimethyl-octyl-amino-ethanol with p-isobutylphenyl-alpha-methylacetic acid] | 20 | 10 | 80 | ≤ 5 | 10 | ≤ 5 | 10 | 10 | 10 | ≤ 5 | ≤ 5 | 10 | ≤ 5 | 20 | 10 | ≤ 5 | 10 | ≤ 5 | 40 | 37 | Mortality ([6]; 7.8 mg/kg): 0/6; Mortality ([6]; 31.2 mg/kg): 6/6; Mortality ([6]; 62.5 mg/kg): 6/6; Mortality ([6]; 125 mg/kg): 5/6; mortality at 336 h ([7]; 7.8 mg/kg): 0%; mortality at 336 h ([7]; 15.6 mg/kg): 0%; mortality at 336 h ([7]; 31.2 mg/kg): 100%; mortality at 336 h ([7]; 62.5 mg/kg): 100%; mortality at 336 h ([7]; 125 mg/kg): 83.3%; Percent increase in response with respect to controls [12]: 185%; Irritation degree 4h [23]: 2; Irritation degree 24h [23]: 1; % Inhibition with respect to controls ([24]; 400 mg/kg orally): 51%; MIC [25]: 10 µg/mL
2 | N=C(NCCCCCCNC(=N)NC(=N)Nc1ccc(Cl)cc1)NC(=N)Nc1ccc(Cl)cc1 [Chlorexidine, Chlorexidine gluconate, reference compound] | 20 | 40 | 10 | 20 | 40 | 40 | 80 | 10 | 20 | 80 | 40 | 40 | 20 | 10 | > 80 | 40 | 80 | ≤ 5 | 80 | – | MIC [25]: ≤ 5 µg/mL
3 | CCCCCCCCCC[N+](C)(C)CCOC(=O)Cc1c(C)n(C(=O)c2ccc(Cl)cc2)c2ccc(OC)cc12 [RE 8, iodide of the ester of 2-N,N,N-dimethyl-decyl --amino-ethanol with 1-(p-chlorobenzoyl)-2-methyl-5-methoxy-3-indolyl-acetic acid] | 10 | 80 | > 80 | 10 | 80 | ≤ 5 | ≤ 5 | ≤ 5 | 10 | ≤ 5 | ≤ 5 | > 80 | ≤ 5 | 10 | ≤ 5 | ≤ 5 | 80 | ≤ 5 | 80 | 31 | Mortality ([6]; 7.8 mg/kg): 0/6; Mortality ([6]; 31.2 mg/kg): 6/6; Mortality ([6]; 62.5 mg/kg): 6/6; Mortality ([6]; 125 mg/kg): 5/6; Mortality ([6]; 250 mg/kg): 6/6; mortality at 336 h ([7]; 7.8 mg/kg): 0%; mortality at 336 h ([7]; 15.6 mg/kg): 0%; mortality at 336 h ([7]; 31.2 mg/kg): 100%; mortality at 336 h ([7]; 62.5 mg/kg): 100%; mortality at 336 h ([7]; 125 mg/kg): 83.3%; mortality at 336 h ([7]; 250 mg/kg): 100%; Percent increase in response with respect to controls [12]: 97%; Irritation degree 4h [23]: 2; Irritation degree 24h [23]: 2; % Inhibition with respect to controls ([24]; 400 mg/kg orally): 46%; MIC [25]: 10 µg/mL
4 | CCCCCCCCCCCC[N+](C)(C)CCOC(=O)Cc1c(C)n(C(=O)c2ccc(Cl)cc2)c2ccc(OC)cc12 [RE 9, iodide of the ester of 2-N,N,N-dimethyl-dodecyl, amino-ethanol with 1-(p-chlorobenzoyl)-2-methyl-5-methoxy-3-indolyl-acetic acid] | ≤ 5 | 20 | 80 | ≤ 5 | 80 | ≤ 5 | ≤ 5 | ≤ 5 | ≤ 5 | ≤ 5 | ≤ 5 | 80 | ≤ 5 | ≤ 5 | ≤ 5 | ≤ 5 | 80 | ≤ 5 | 80 | 35 | Mortality ([6]; 62.5 mg/kg): 5/6; Mortality ([6]; 125 mg/kg): 6/6; Mortality ([6]; 250 mg/kg): 5/6; Mortality ([6]; 500 mg/kg): 6/6; mortality at 336 h ([7]; 31.2 mg/kg): 0%; mortality at 336 h ([7]; 62.5 mg/kg): 83.3%; mortality at 336 h ([7]; 125 mg/kg): 100%; mortality at 336 h ([7]; 250 mg/kg): 83.3%; mortality at 336 h ([7]; 500 mg/kg): 100%; Percent increase in response with respect to controls [12]: 95%; Irritation degree 4h [23]: 2; Irritation degree 24h [23]: 2; % Inhibition with respect to controls ([24]; 400 mg/kg orally): 40%; MIC [25]: ≤ 5 µg/mL
5 | CC(C)Cc1ccc(C(C)C(=O)O)cc1 (stereo not drawn) [ibuprofen, Ibuprofen, reference compound] | – | – | – | – | – | – | – | – | – | – | – | – | – | – | – | – | – | – | – | 60 | % Inhibition with respect to controls ([24]; 400 mg/kg orally): 58%
